Measurements from the CheMixHub ionic liquid set.
± gives the uncertainty stated by the source.

Test: xn = mol fraction of the nth substance listed
[1] = 328.15 K, 101.3 kPa, x2 = 0.6364

SMILES: CC[NH3+].O=[N+]([O-])[O-] + O=[N+]([O-])[O-].O=[N+]([O-])[O-].[Ca+2] + O
- electrical conductivity (223 K, 100 kPa, x2 = 0.05128, x3 = 0.1778): 0.001 ± 0.001 S/m
- electrical conductivity (233 K, 100 kPa, x2 = 0.05128, x3 = 0.1778): 0.009 ± 0.001 S/m
- electrical conductivity (233 K, 100 kPa, x2 = 0.09755, x3 = 0.3019): 0.009 ± 0.001 S/m
- electrical conductivity (243 K, 100 kPa, x2 = 0.05128, x3 = 0.1778): 0.034 ± 0.003 S/m
- electrical conductivity (243 K, 100 kPa, x2 = 0.09755, x3 = 0.3019): 0.034 ± 0.003 S/m
- electrical conductivity (253 K, 100 kPa, x2 = 0.05128, x3 = 0.1778): 0.095 ± 0.01 S/m
- electrical conductivity (253 K, 100 kPa, x2 = 0.09755, x3 = 0.3019): 0.095 ± 0.01 S/m
- electrical conductivity (263 K, 100 kPa, x2 = 0.05128, x3 = 0.1778): 0.209 ± 0.021 S/m
- electrical conductivity (263 K, 100 kPa, x2 = 0.09755, x3 = 0.3019): 0.209 ± 0.021 S/m
- electrical conductivity (273 K, 100 kPa, x2 = 0.05128, x3 = 0.1778): 0.394 ± 0.039 S/m
- electrical conductivity (273 K, 100 kPa, x2 = 0.09755, x3 = 0.3019): 0.394 ± 0.039 S/m
- electrical conductivity (283 K, 100 kPa, x2 = 0.05128, x3 = 0.1778): 0.662 ± 0.066 S/m
- electrical conductivity (283 K, 100 kPa, x2 = 0.09755, x3 = 0.3019): 0.662 ± 0.066 S/m
- viscosity (288.15 K, 100 kPa, x2 = 0.05128, x3 = 0.1778): 131.6 ± 7.5 mPa·s
- viscosity (288.15 K, 100 kPa, x2 = 0.09755, x3 = 0.3019): 160.5 ± 8.5 mPa·s
- electrical conductivity (293 K, 100 kPa, x2 = 0.05128, x3 = 0.1778): 1.02 ± 0.1 S/m
- electrical conductivity (293 K, 100 kPa, x2 = 0.09755, x3 = 0.3019): 1.02 ± 0.1 S/m
- viscosity (293.15 K, 100 kPa, x2 = 0.05128, x3 = 0.1778): 106.7 ± 3.9 mPa·s
- viscosity (293.15 K, 100 kPa, x2 = 0.09755, x3 = 0.3019): 127.9 ± 5.6 mPa·s
- viscosity (298.15 K, 100 kPa, x2 = 0.05128, x3 = 0.1778): 87.1 ± 2.6 mPa·s
- viscosity (298.15 K, 100 kPa, x2 = 0.09755, x3 = 0.3019): 102.8 ± 3.6 mPa·s
- electrical conductivity (303 K, 100 kPa, x2 = 0.05128, x3 = 0.1778): 1.47 ± 0.15 S/m
- electrical conductivity (303 K, 100 kPa, x2 = 0.09755, x3 = 0.3019): 1.47 ± 0.15 S/m
- viscosity (303.15 K, 100 kPa, x2 = 0.05128, x3 = 0.1778): 71.6 ± 1.7 mPa·s
- viscosity (303.15 K, 100 kPa, x2 = 0.09755, x3 = 0.3019): 83.2 ± 2.3 mPa·s
- viscosity (308.15 K, 100 kPa, x2 = 0.05128, x3 = 0.1778): 59.2 ± 1.2 mPa·s
- viscosity (308.15 K, 100 kPa, x2 = 0.09755, x3 = 0.3019): 67.8 ± 1.4 mPa·s
- electrical conductivity (313 K, 100 kPa, x2 = 0.05128, x3 = 0.1778): 2.01 ± 0.2 S/m
- electrical conductivity (313 K, 100 kPa, x2 = 0.09755, x3 = 0.3019): 2.01 ± 0.2 S/m
- viscosity (313.15 K, 100 kPa, x2 = 0.05128, x3 = 0.1778): 49.3 ± 1.1 mPa·s
- viscosity (313.15 K, 100 kPa, x2 = 0.09755, x3 = 0.3019): 55.59 ± 0.97 mPa·s
- electrical conductivity (323 K, 100 kPa, x2 = 0.05128, x3 = 0.1778): 2.64 ± 0.26 S/m
- electrical conductivity (323 K, 100 kPa, x2 = 0.09755, x3 = 0.3019): 2.64 ± 0.26 S/m
- electrical conductivity (333 K, 100 kPa, x2 = 0.05128, x3 = 0.1778): 3.35 ± 0.34 S/m
- electrical conductivity (333 K, 100 kPa, x2 = 0.09755, x3 = 0.3019): 3.35 ± 0.34 S/m
- electrical conductivity (343 K, 100 kPa, x2 = 0.05128, x3 = 0.1778): 4.13 ± 0.41 S/m
- electrical conductivity (343 K, 100 kPa, x2 = 0.09755, x3 = 0.3019): 4.13 ± 0.41 S/m
- electrical conductivity (353 K, 100 kPa, x2 = 0.05128, x3 = 0.1778): 4.98 ± 0.5 S/m
- electrical conductivity (353 K, 100 kPa, x2 = 0.09755, x3 = 0.3019): 4.98 ± 0.5 S/m
- electrical conductivity (363 K, 100 kPa, x2 = 0.05128, x3 = 0.1778): 5.89 ± 0.59 S/m
- electrical conductivity (363 K, 100 kPa, x2 = 0.09755, x3 = 0.3019): 5.89 ± 0.59 S/m
- electrical conductivity (373 K, 100 kPa, x2 = 0.05128, x3 = 0.1778): 6.84 ± 0.68 S/m
- electrical conductivity (373 K, 100 kPa, x2 = 0.09755, x3 = 0.3019): 6.84 ± 0.68 S/m

SMILES: C[P+](c1ccccc1)(c1ccccc1)c1ccccc1.[Br-] + OCC(O)CO
- viscosity (298 K, 101.3 kPa, x1 = 0.2): 352 ± 37 mPa·s
- viscosity (298.2 K, 101 kPa, x1 = 0.2): 1894 ± 280 mPa·s
- viscosity (322.36 K, 101 kPa, x2 = 0.75): 272 ± 8.9 mPa·s
- viscosity (327.54 K, 101 kPa, x2 = 0.75): 204 ± 5.7 mPa·s
- electrical conductivity [1]: 0.09 ± 0.014 S/m
- viscosity [1]: 410 ± 190 mPa·s

SMILES: CC[C@H](C)[C@H](N)C(=O)O + CC[n+]1ccn(C)c1.O=S(=O)([O-])O + O
- viscosity (293.15 K, 100 kPa, x1 = 0.0003801, x2 = 0): 1.024 ± 0.033 mPa·s
- viscosity (293.15 K, 100 kPa, x1 = 0.0007797, x2 = 0): 1.046 ± 0.033 mPa·s
- viscosity (293.15 K, 100 kPa, x1 = 0.00113, x2 = 0): 1.066 ± 0.033 mPa·s
- viscosity (293.15 K, 100 kPa, x1 = 0.001526, x2 = 0): 1.088 ± 0.033 mPa·s
- viscosity (293.15 K, 100 kPa, x1 = 0.001761, x2 = 0): 1.101 ± 0.033 mPa·s
- viscosity (293.15 K, 100 kPa, x1 = 0.002228, x2 = 0): 1.127 ± 0.033 mPa·s
- viscosity (293.15 K, 100 kPa, x1 = 0.002748, x2 = 0): 1.156 ± 0.046 mPa·s
- viscosity (298.15 K, 100 kPa, x1 = 0.0003801, x2 = 0): 0.902 ± 0.032 mPa·s
- viscosity (298.15 K, 100 kPa, x1 = 0.0007797, x2 = 0): 0.913 ± 0.032 mPa·s
- viscosity (298.15 K, 100 kPa, x1 = 0.00113, x2 = 0): 0.923 ± 0.032 mPa·s
- viscosity (298.15 K, 100 kPa, x1 = 0.001526, x2 = 0): 0.934 ± 0.032 mPa·s
- viscosity (298.15 K, 100 kPa, x1 = 0.001761, x2 = 0): 0.94 ± 0.031 mPa·s
- viscosity (298.15 K, 100 kPa, x1 = 0.002228, x2 = 0): 0.953 ± 0.032 mPa·s
- viscosity (298.15 K, 100 kPa, x1 = 0.002748, x2 = 0): 0.968 ± 0.041 mPa·s
- viscosity (303.15 K, 100 kPa, x1 = 0.0003801, x2 = 0): 0.807 ± 0.031 mPa·s
- viscosity (303.15 K, 100 kPa, x1 = 0.0007797, x2 = 0): 0.817 ± 0.031 mPa·s
- viscosity (303.15 K, 100 kPa, x1 = 0.00113, x2 = 0): 0.826 ± 0.031 mPa·s
- viscosity (303.15 K, 100 kPa, x1 = 0.001526, x2 = 0): 0.836 ± 0.031 mPa·s
- viscosity (303.15 K, 100 kPa, x1 = 0.001761, x2 = 0): 0.843 ± 0.031 mPa·s
- viscosity (303.15 K, 100 kPa, x1 = 0.002228, x2 = 0): 0.855 ± 0.031 mPa·s
- viscosity (303.15 K, 100 kPa, x1 = 0.002748, x2 = 0): 0.868 ± 0.032 mPa·s
- viscosity (308.15 K, 100 kPa, x1 = 0.0003801, x2 = 0): 0.729 ± 0.031 mPa·s
- viscosity (308.15 K, 100 kPa, x1 = 0.0007797, x2 = 0): 0.739 ± 0.031 mPa·s
- viscosity (308.15 K, 100 kPa, x1 = 0.00113, x2 = 0): 0.748 ± 0.031 mPa·s
- viscosity (308.15 K, 100 kPa, x1 = 0.001526, x2 = 0): 0.757 ± 0.031 mPa·s
- viscosity (308.15 K, 100 kPa, x1 = 0.001761, x2 = 0): 0.763 ± 0.031 mPa·s
- viscosity (308.15 K, 100 kPa, x1 = 0.002228, x2 = 0): 0.775 ± 0.031 mPa·s
- viscosity (308.15 K, 100 kPa, x1 = 0.002748, x2 = 0): 0.787 ± 0.031 mPa·s
- viscosity (313.15 K, 100 kPa, x1 = 0.0003801, x2 = 0): 0.661 ± 0.031 mPa·s
- viscosity (313.15 K, 100 kPa, x1 = 0.0007797, x2 = 0): 0.671 ± 0.031 mPa·s
- viscosity (313.15 K, 100 kPa, x1 = 0.00113, x2 = 0): 0.679 ± 0.031 mPa·s
- viscosity (313.15 K, 100 kPa, x1 = 0.001526, x2 = 0): 0.688 ± 0.031 mPa·s
- viscosity (313.15 K, 100 kPa, x1 = 0.001761, x2 = 0): 0.693 ± 0.031 mPa·s
- viscosity (313.15 K, 100 kPa, x1 = 0.002228, x2 = 0): 0.704 ± 0.031 mPa·s
- viscosity (313.15 K, 100 kPa, x1 = 0.002748, x2 = 0): 0.716 ± 0.031 mPa·s
